These molecules were tested on Dirofilaria immitis microfilariae (assay: in vitro microwell motility assay against heartworm microfilariae). Conditions: microfilaria from canine blood, 384 well plate, 72 hours incubation at 37° C. and 5% CO2, LemnaTec Scanalyzer.
Type: cell-based

Compound | ED50 (dose at which the overall microfilaria motility was reduced by 50% compared to that of an untreated control) [µM]
CC(C#N)(COc1cc(C#N)ccc1Oc1ccc(C(F)(F)F)cc1)NC(=O)c1ccc(S(F)(F)(F)(F)F)cc1 (centres unmarked) [test compound 67, N-(1-cyano-2-{5-cyano-2-[4-(trifluoromethyl)phenoxy]phenoxy}-1-methylethyl)-4-(pentafluorothio)benzamide] | 1
CC(C#N)(COc1cc(C#N)ccc1Cl)NC(=O)c1ccc(S(F)(F)(F)(F)F)cc1 (centres unmarked) [test compound 57, N-[2-(2-chloro-5-cyanophenoxy)-1-cyano-1-methylethyl]-4-(pentafluorothio)-benzamide] | 10
CC(C#N)(COCc1ccc(C(F)(F)F)cc1)NC(=O)c1ccc(S(F)(F)(F)(F)F)cc1 (centres unmarked) [test compound 84, N-(1-cyano-1-methyl-2-{[4-(trifluoromethyl)benzyl]oxy}ethyl)-4-(pentafluorothio)benzamide] | 3.3
Cc1ccc(Oc2ccc(C#N)cc2OCC(C)(C#N)NC(=O)c2ccc(S(F)(F)(F)(F)F)cc2)c(Cl)c1 (centres unmarked) [test compound 71, N-{2-[2-(2-chloro-4-methylphenoxy)-5-cyanophenoxy]-1-cyano-1-methylethyl}-4-(pentafluorothio)benzamide] | 1
COc1ccc(Oc2ccc(C#N)cc2OCC(C)(C#N)NC(=O)c2ccc(S(F)(F)(F)(F)F)cc2)c(F)c1F (centres unmarked) [test compound 76, N-{1-cyano-2-[5-cyano-2-(2,3-difluoro-4-methoxyphenoxy)phenoxy]-1-methylethyl}-4-(pentafluorothio)benzamide] | 10
COc1cc(O)ccc1Oc1ccc(C#N)cc1OCC(C)(C#N)NC(=O)c1ccc(S(F)(F)(F)(F)F)cc1 (centres unmarked) [test compound 79, N-{1-cyano-2-[5-cyano-2-(4-hydroxy-2-methoxyphenoxy)phenoxy]-1-methylethyl}-4-(pentafluorothio)benzamide] | 10
CC(C#N)(COc1cccc(Cl)c1C#N)NC(=O)c1ccc(S(F)(F)(F)(F)F)cc1 (centres unmarked) [test compound 17, N-[2-(3-chloro-2-cyanophenoxy)-1-cyano-1-methylethyl]-4-(pentafluorothio)-benzamide] | 10
CC(C#N)(COc1cc(Br)ccc1C#N)NC(=O)c1ccc(S(F)(F)(F)(F)F)cc1 (centres unmarked) [test compound 36, N-[2-(5-bromo-2-cyanophenoxy)-1-cyano-1-methylethyl]-4-(pentafluorothio)-benzamide] | 10
CC(C#N)(COc1ccc(Cl)cc1F)NC(=O)c1ccc(S(F)(F)(F)(F)F)cc1 (centres unmarked) [test compound 20, N-[2-(4-chloro-2-fluorophenoxy)-1-cyano-1-methylethyl]-4-(pentafluorothio)-benzamide] | 10
CC(C#N)(NC(=O)c1ccc(S(F)(F)(F)(F)F)cc1)C1Cc2cc(C#N)cc(C(F)(F)F)c2O1 (centres unmarked) [test compound 83, N-{1-cyano-1-[5-cyano-7-(trifluoromethyl)-2,3-dihydro-1-benzofuran-2-yl]ethyl}-4-(pentafluorothio)benzamide] | 10
CC(C#N)(COc1cc(C#N)ccc1Cl)NC(=O)c1ccc(S(F)(F)(F)(F)F)cc1 (centres unmarked) [test compound 4, N-[2-(2-chloro-5-cyanophenoxy)-1-cyano-1-methylethyl]-4-(pentafluorothio)benzamide] | 10
CC(C#N)(COc1cc(C#N)cc(C(F)(F)F)c1)NC(=O)c1ccc(S(F)(F)(F)(F)F)cc1 (centres unmarked) [test compound 5, N-{1-cyano-2-[3-cyano-5-(trifluoromethyl)phenoxy]-1-methylethyl}-4-(pentafluorothio)benzamide] | 3.3
COc1ccc(OCC(C)(C#N)NC(=O)c2ccc(S(F)(F)(F)(F)F)cc2)cc1C#N (centres unmarked) [test compound 41, N-[1-cyano-2-(3-cyano-4-methoxyphenoxy)-1-methylethyl]-4-(pentafluorothio)-benzamide] | 33
COc1c(F)cc(Oc2ccc(C#N)cc2OCC(C)(C#N)NC(=O)c2ccc(S(F)(F)(F)(F)F)cc2)cc1F (centres unmarked) [test compound 78, N-{1-cyano-2-[5-cyano-2-(3,5-difluoro-4-methoxyphenoxy)phenoxy]-1-methylethyl}-4-(pentafluorothio)benzamide] | 1
CC(C#N)(COc1cc(C#N)ccc1OC(F)(F)F)NC(=O)c1ccc(S(F)(F)(F)(F)F)cc1 (centres unmarked) [test compound 55, N-{1-cyano-2-[5-cyano-2-(trifluoromethoxy)phenoxy]-1-methylethyl}-4-(pentafluorothio)benzamide] | 10
CC(C#N)(COc1cccc(Cl)c1C(F)(F)F)NC(=O)c1ccc(S(F)(F)(F)(F)F)cc1 (centres unmarked) [test compound 50, N-{2-[3-chloro-2-(trifluoromethyl)phenoxy]-1-cyano-1-methylethyl}-4-(pentafluorothio)benzamide] | 33
CC(C#N)(COc1ccc(Cl)c(Cl)c1)NC(=O)c1ccc(S(F)(F)(F)(F)F)cc1 (centres unmarked) [test compound 38, N-[1-cyano-2-(3,4-dichlorophenoxy)-1-methylethyl]-4-(pentafluorothio)benzamide] | 33
CC(C#N)(COc1cc(C#N)ccc1Oc1ccc(Cl)cc1)NC(=O)c1ccc(S(F)(F)(F)(F)F)cc1 (centres unmarked) [test compound 64, N-{2-[2-(4-chlorophenoxy)-5-cyanophenoxy]-1-cyano-1-methylethyl}-4-(pentafluorothio)benzamide] | 1
CC(C#N)(COc1cc(C#N)ccc1C(F)(F)F)NC(=O)c1ccc(S(F)(F)(F)(F)F)cc1 (centres unmarked) [test compound 3, N-{1-cyano-2-[5-cyano-2-(trifluoromethyl)phenoxy]-1-methylethyl}-4-(pentafluorothio)benzamide] | 10
CC(C#N)(COc1ccc(C#N)cc1OC(F)(F)F)NC(=O)c1ccc(S(F)(F)(F)(F)F)cc1 (centres unmarked) [test compound 56, N-{1-cyano-2-[4-cyano-2-(trifluoromethoxy)phenoxy]-1-methylethyl}-4-(pentafluorothio)benzamide] | 3.3
COc1cc(F)c(Oc2ccc(C#N)cc2OCC(C)(C#N)NC(=O)c2ccc(S(F)(F)(F)(F)F)cc2)c(F)c1 (centres unmarked) [test compound 77, N-{1-cyano-2-[5-cyano-2-(2,6-difluoro-4-methoxyphenoxy)phenoxy]-1-methylethyl}-4-(pentafluorothio)benzamide] | 10
CC(C#N)(COc1cc(C#N)ccc1Oc1ccc(F)cc1Cl)NC(=O)c1ccc(S(F)(F)(F)(F)F)cc1 (centres unmarked) [test compound 63, N-{2-[2-(2-chloro-4-fluorophenoxy)-5-cyanophenoxy]-1-cyano-1-methylethyl}-4-(pentafluorothio)benzamide] | 3.3
CC(C#N)(COc1c(F)cc(F)cc1C#N)NC(=O)c1ccc(S(F)(F)(F)(F)F)cc1 (centres unmarked) [test compound 54, N-[1-cyano-2-(2-cyano-4,6-difluorophenoxy)-1-methylethyl]-4-(pentafluorothio)-benzamide] | 33
CC(C#N)(COc1cc(Br)cc(C#N)c1)NC(=O)c1ccc(S(F)(F)(F)(F)F)cc1 (centres unmarked) [test compound 33, N-[2-(3-bromo-5-cyanophenoxy)-1-cyano-1-methylethyl]-4-(pentafluorothio)-benzamide] | 33
CC(C#N)(COc1cc(C#N)ccc1Br)NC(=O)c1ccc(S(F)(F)(F)(F)F)cc1 (centres unmarked) [test compound 27, N-[2-(2-bromo-5-cyanophenoxy)-1-cyano-1-methylethyl]-4-(pentafluorothio)-benzamide] | 3.3
CC(C#N)(COc1cc(Cl)ccc1Cl)NC(=O)c1ccc(S(F)(F)(F)(F)F)cc1 (centres unmarked) [test compound 39, N-[1-cyano-2-(2,5-dichlorophenoxy)-1-methylethyl]-4-(pentafluorothio)benzamide] | 10
CC(C#N)(COc1cc(C#N)ccc1Oc1ccc(Cl)cc1Cl)NC(=O)c1ccc(S(F)(F)(F)(F)F)cc1 (centres unmarked) [test compound 65, N-{1-cyano-2-[5-cyano-2-(2,4-dichlorophenoxy)phenoxy]-1-methylethyl}-4-(pentafluorothio)benzamide] | 3.3
CSc1ccc(COCC(C)(C#N)NC(=O)c2ccc(S(F)(F)(F)(F)F)cc2)cc1 (centres unmarked) [test compound 53, N-(1-cyano-1-methyl-2-{[4-(methylthio)benzyl]oxy}ethyl)-4-(pentafluorothio)benzamide] | 10
CC(C#N)(COc1ccc(F)cc1Br)NC(=O)c1ccc(S(F)(F)(F)(F)F)cc1 (centres unmarked) [test compound 31, N-[2-(2-bromo-4-fluorophenoxy)-1-cyano-1-methylethyl]-4-(pentafluorothio)-benzamide] | 10

Reference: patent US8962681B2, “Use of aminoacetonitrile derivatives against endoparasites” (Zoetis LLC, priority 2011, dated 2015)
